The record followed here is ChEMBL document CHEMBL4311972, “Discovery of a benzothiophene-flavonol halting miltefosine and antimonial drug resistance in Leishmania parasites through the application of medicinal chemistry, screening and genomics” (Eur J Med Chem, 2019).

One may read the inhibition in vivo as how much of the control response was suppressed. In general, Kd refers to the constant that tells how readily two partners part at equilibrium. Low readings indicate tighter binding, high ones weaker binding. Broadly, the Cmax is the peak of the concentration-time curve. Usually AUC stands for concentration integrated over time.

The subject of data set [1] is Leishmania infantum. The data set is described as follows: Antileishmanial activity against Leishmania infantum amastigotes infected in Syrian hamster assessed as reduction in parasite load in spleen at 20 mg/kg/day, po for 10 days relative to control. The class given is functional. Particulars: 240 h.
A short description of data set [2]: Toxicity in Syrian hamster infected with Leishmania infantum BCN150 promastigotes assessed as dizziness at 20 mg/kg/day, po for 10 days measured daily. The class given is organism-based, Mesocricetus auratus. The conditions noted are these: in vivo, 240 h.
A short description of data set [3]: Toxicity in Syrian hamster infected with Leishmania infantum BCN150 promastigotes assessed as distress effect at 20 mg/kg/day, po for 10 days measured daily. The class given is organism-based, Mesocricetus auratus. Particulars: in vivo, 240 h.
For data set [4], the system named is Leishmania donovani. The data set is described as follows: Antileishmanial activity against Leishmania donovani 1SR promastigotes assessed as parasite growth at IC50 concentration incubated with compound for 3 days under selective pressure and selection cycle repeated 10 times for total of 33 days and measured at 3 to 33 days of selection. The data set is classed as functional, organism-based.

In data set [5] the test system is Leishmania donovani. The experiment in a line: Antileishmanial activity against Leishmania donovani BPK091 promastigotes transfected with Leishmania donovani BPK190 genomic cosmid DNA assessed as parasite growth at IC75 concentration incubated for 3 days under selective pressure and selection cycle repeated for 25 passages and measured at 43 to 78 days of selection relative to control. The data set is classed as functional.

A short description of data set [6]: Toxicity in Syrian hamster infected with Leishmania infantum BCN150 promastigotes assessed as effect on plasma creatinine level at 20 mg/kg/day, po for 10 days measured after the last treatment. The data set is classed as organism-based, Mesocricetus auratus. Particulars: in vivo, 240 h.
Data set [7] in a line: Toxicity in Syrian hamster infected with Leishmania infantum BCN150 promastigotes assessed as liver lesions at 20 mg/kg/day, po for 10 days. The data set is classed as organism-based, Mesocricetus auratus. Particulars: in vivo, 240 h.
The test system of data set [8] is Leishmania infantum. The experiment in a line: Antileishmanial activity against Leishmania infantum amastigotes infected in Syrian hamster assessed as reduction in parasite load at 40 mg/kg/day, po for 10 days formulated with 30% v/v cyclodextrin relative to control. The class given is functional. Particulars: 240 h.
For data set [9], the target named is T1, Albumin (Bos taurus, UniProt P02769). The data set is described as follows: Binding affinity to bovine serum albumin by fluorescence based assay. The class given is ADME.
T1 sequence (P02769 whole entry): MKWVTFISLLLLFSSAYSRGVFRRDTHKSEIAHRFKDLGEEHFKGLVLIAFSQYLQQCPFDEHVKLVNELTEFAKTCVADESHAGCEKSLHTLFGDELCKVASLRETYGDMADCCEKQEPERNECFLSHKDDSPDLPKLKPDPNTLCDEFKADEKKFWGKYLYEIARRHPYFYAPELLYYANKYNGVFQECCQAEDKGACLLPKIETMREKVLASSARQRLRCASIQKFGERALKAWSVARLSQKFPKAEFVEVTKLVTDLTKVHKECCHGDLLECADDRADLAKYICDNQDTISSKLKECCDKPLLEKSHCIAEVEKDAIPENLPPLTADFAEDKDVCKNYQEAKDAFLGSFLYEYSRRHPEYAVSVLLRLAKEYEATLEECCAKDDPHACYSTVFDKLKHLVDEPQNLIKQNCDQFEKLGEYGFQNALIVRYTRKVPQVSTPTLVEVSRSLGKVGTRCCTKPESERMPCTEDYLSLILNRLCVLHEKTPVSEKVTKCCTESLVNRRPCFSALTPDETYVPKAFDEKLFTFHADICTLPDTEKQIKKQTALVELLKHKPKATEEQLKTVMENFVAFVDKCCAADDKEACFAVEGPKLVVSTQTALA
Data set [10] in a line: Chemical stability of compound in PBS at 20 uM at pH 8 exposed to air bubbling followed by supplementation with human serum albumin measured for 6 hrs by UV-vis spectrophotometry analysis. The class given is physicochemical.
A short description of data set [11]: Chemical stability of compound in PBS assessed as decrease in absorbance at 60 uM at pH 7 to 8 and 25 degC measured within 20 mins under dark conditions by UV-vis spectrophotometry analysis. The data set is classed as physicochemical. The conditions noted are these: read-out: Drug degradation.
Data set [12] relates to Leishmania infantum. The experiment in a line: Antileishmanial activity against Leishmania infantum amastigotes infected in Syrian hamster assessed as parasite load within spleen at 40 mg/kg/day, po for 10 days formulated with 30% v/v cyclodextrin (reference value: 9874032.937 +/- 3482270.184/g). The data set is classed as functional.
Data set [13] can be described thus: Selectivity index, ratio of CC50 for human THP1 cells to EC50 for luciferase expressing intracellular amastigote stage of Leishmania infantum infected in human THP1 cells. The class given is toxicity, cell-based. Particulars: read-out: Ratio CC50/EC50.
Data set [14] can be described thus: Cmax in BALB/c mouse at 1 mg/kg, iv measured upto 72 hrs by snapshot method. The class given is ADME, organism-based. Also on record: dose 1 mg/kg, route intravenous. The conditions noted are these: in vivo.
Data set [15] is described as follows: AUC (total) in BALB/c mouse at 20 mg/kg, po measured upto 72 hrs by snapshot method. The class given is ADME, organism-based. Also on record: time < 72 hr, dose 20 mg/kg, route oral. The conditions noted are these: in vivo.
In data set [16] the test system is WI-38. The experiment in a line: Cytostatic activity against human WI38 cells assessed as reduction in cell growth incubated for 48 hrs by Celltiter-Glo luminescence assay. The class given is cell-based. Particulars: wi-38, 48 h. (Cellular ATP, detected with luciferase, serves as a proxy for viable cell number.)
Data set [17] concerns Leishmania infantum. The experiment in a line: Antileishmanial activity against Leishmania infantum amastigotes infected in Syrian hamster assessed as parasite load within spleen at 40 mg/kg/day, po for 10 days formulated with 8% v/v DMSO (reference value: 9151063.431 +/- 2606154.975/g). The data set is classed as functional.
Data set [18] has as its system Leishmania infantum. The data set is described as follows: Anti-leishmanial activity against Leishmania infantum BCN150 promastigotes infected in Syrian hamster assessed as decrease in anti-leishmanial IgG level at 40 mg/kg/day, po for 10 days formulated with […] v/v DMSO by ELISA. The data set is classed as functional, organism-based. (In an ELISA, binding on a coated surface is turned into a signal by an enzyme label.)

A short description of data set [19]: Toxicity in Syrian hamster infected with Leishmania infantum BCN150 promastigotes assessed as liver weight at 40 mg/kg/day, po for 10 days formulated with 8% v/v DMSO (reference value: 5.874 +/- 0.414 g). The data set is classed as organism-based, Mesocricetus auratus. Particulars: in vivo, 240 h.
A short description of data set [20]: Toxicity in Syrian hamster infected with Leishmania infantum BCN150 promastigotes assessed as spleen weight at 40 mg/kg/day, po for 10 days formulated with 8% v/v DMSO (reference value: 0.182 +/- 0.036 g). The data set is classed as organism-based, Mesocricetus auratus. Particulars: in vivo, 240 h.
Data set [21] is described as follows: Toxicity in Syrian hamster infected with Leishmania infantum BCN150 promastigotes assessed as effect on plasma urea level at 40 mg/kg/day, po for 10 days formulated with 8% v/v DMSO. The class given is organism-based, Mesocricetus auratus. The conditions noted are these: in vivo, 240 h.
Data set [22] deals with WI-38. The data set is described as follows: Cytotoxicity against human WI38 cells incubated for 48 hrs by Celltiter-Glo luminescence assay. The class given is cell-based. The conditions noted are these: wi-38, 48 h.
A short description of data set [23]: Chemical stability of compound in PBS assessed as decrease in absorbance at 60 uM at pH 7 to 8 measured after exposure to daylight by UV-vis spectrophotometry analysis. The class given is physicochemical. Particulars: buffer, pH 7, 60 µM.
The target of data set [24] is Albumin (Homo sapiens, UniProt P02768). The experiment in a line: Binding affinity to human serum albumin in phosphate buffer assessed as increase in emission intensity at 530-550 nm at 5 uM measured at pH 8 at albumin concentration of 2 uM by fluorescence emission spectrum analysis. The data set is classed as ADME. Particulars: isolated protein, pH 8, 5 µM.
Sequence of Albumin (Homo sapiens, UniProt P02768) (P02768 whole entry): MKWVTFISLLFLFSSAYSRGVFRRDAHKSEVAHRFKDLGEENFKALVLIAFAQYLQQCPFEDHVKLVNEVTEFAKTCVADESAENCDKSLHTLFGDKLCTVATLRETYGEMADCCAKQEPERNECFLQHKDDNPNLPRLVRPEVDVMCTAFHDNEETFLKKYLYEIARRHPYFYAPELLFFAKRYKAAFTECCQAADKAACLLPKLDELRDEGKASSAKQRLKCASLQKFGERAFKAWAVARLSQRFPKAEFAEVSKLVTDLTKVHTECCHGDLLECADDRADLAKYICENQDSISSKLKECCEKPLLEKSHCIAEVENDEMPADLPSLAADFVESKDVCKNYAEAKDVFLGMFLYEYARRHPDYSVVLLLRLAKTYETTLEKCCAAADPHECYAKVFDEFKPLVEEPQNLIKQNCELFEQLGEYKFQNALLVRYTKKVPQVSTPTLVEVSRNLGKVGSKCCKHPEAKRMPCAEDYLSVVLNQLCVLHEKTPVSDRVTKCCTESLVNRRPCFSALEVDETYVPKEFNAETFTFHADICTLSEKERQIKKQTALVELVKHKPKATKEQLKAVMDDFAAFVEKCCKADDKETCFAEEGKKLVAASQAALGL
The target of data set [25] is T1, Albumin. The data set is described as follows: Binding affinity to bovine serum albumin in phosphate buffer assessed as decrease in emission intensity at 450 nm at 5 uM measured at pH 8 by fluorescence emission spectrum analysis. The class given is ADME. The conditions noted are these: cattle, isolated protein.
Data set [26] deals with T1, Albumin. The experiment in a line: Binding affinity to bovine serum albumin in phosphate buffer assessed as increase in emission anisotropy at 530 nm at 5 uM measured at pH 8 by fluorescence emission spectrum analysis. The data set is classed as ADME. Particulars: cattle, isolated protein.
A short description of data set [27]: Binding affinity to pepsin in porcine gastric mucosa in phosphate buffer assessed as increase in emission intensity at 530 nm at 5 uM measured at pH 8 by fluorescence emission spectrum analysis. The data set is classed as ADME, Sus scrofa. The conditions noted are these: pig.
A short description of data set [28]: Binding affinity to trypsin in bovine pancreas in phosphate buffer assessed as increase in emission intensity at 530 nm at 5 uM measured at pH 8 by fluorescence emission spectrum analysis. The conditions noted are these: cattle. The data set is classed as ADME, Bos taurus.
For the next data set, the target named is T2, Beta-casein (Bos taurus, UniProt P02666).
T2 sequence (P02666 whole entry): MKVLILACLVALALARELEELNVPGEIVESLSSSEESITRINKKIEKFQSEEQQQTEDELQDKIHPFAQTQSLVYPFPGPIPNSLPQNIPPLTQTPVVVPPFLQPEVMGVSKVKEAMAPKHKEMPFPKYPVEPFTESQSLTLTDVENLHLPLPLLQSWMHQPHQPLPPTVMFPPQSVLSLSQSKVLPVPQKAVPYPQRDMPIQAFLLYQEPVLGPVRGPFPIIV
The data set is described as follows: Binding affinity to bovine milk beta-casein in phosphate buffer assessed as increase in emission intensity at 530 nm at 5 uM measured at pH 8 by fluorescence emission spectrum analysis. The data set is classed as ADME. The conditions noted are these: cattle.

Data set [29] can be described thus: Binding affinity to pepsin in porcine gastric mucosa in phosphate buffer assessed as compound lifetime at 530 nm at 5 uM measured at pH 8 by fluorescence emission spectrum analysis. The data set is classed as ADME, Sus scrofa. The conditions noted are these: pig.
Data set [30] is described as follows: Toxicity in Syrian hamster infected with Leishmania infantum BCN150 promastigotes assessed as liver lesions at 40 mg/kg/day, po for 10 days formulated with 30 to 50% v/v cyclodextrin measured under necropsy. The conditions noted are these: in vivo, 240 h. The class given is organism-based, Mesocricetus auratus.

Each structure is given as a SMILES string. Several values for one entry are separate records, joined by “and”; a condition that tells them apart may be missing. Equal entries are not always repeated. Activity calls are given as the source filed them. The rule behind the calls is not given here. Some results are limits rather than exact numbers.

Regarding `CCCCCCCCCCCCCCCCOP(=O)([O-])OCC[N+](C)(C)C` [MILTEFOSINE], in the data set with Leishmania infantum [1], the inhibition in vivo at 20 mg/kg/day amounted to 97.3%. Further, the Activity entry was “Toxic” in data set [2]; “Toxic” in data set [3]; more than 75% in the data set on Leishmania donovani [5]; “Non-Toxic” in data set [6]; “Non-Toxic” in data set [7]. For the same compound, the inhibition entry with Leishmania donovani [4] is “inactive”.
For `COc1ccc2oc(-c3csc4ccccc34)c(O)c(=O)c2c1`, the inhibition in vivo at 40 mg/kg/day with Leishmania infantum [8] came to 28.8%. For the same compound, at Albumin [9], the Kd was more than 12 µM. Moreover, the results for the Stability entry in data set [10] and in data set [23] were “Stable” and “Unstable”, respectively. In addition, the degraded at 20 min, 60 µM in data set [11] was determined as 50%. Further, the Activity is 7030915.598 g⁻¹ in the data set on Leishmania infantum [12]; “Toxic” in the data set on WI-38 [16]; 6785423.957 g⁻¹ with Leishmania infantum [17]; 5.444 g in data set [19]; 0.19 g in data set [20]; “Non-Toxic” in data set [21]. Also, the Activity entry is given as “Non-Toxic” in the data set on WI-38 [22]; 50% on Albumin [24]; “Active” on Albumin [25]; “Active” on Albumin [26]; “Active” in data set [27]; “Active” in [28]. In addition, the Activity result is listed as “Active” at Beta-casein and “Non-Toxic” in data set [30]. Besides, the selectivity ratio in data set [13] was 17. Also, in data set [14], the Cmax is 4.76 µM and 1540 ng/mL. Further, in [15], the AUC at 72 h is 38.5 µM·h and 12500 ng·h/mL. Further, the inhibition result in the data set with Leishmania infantum [18] was “Active”. In addition, in data set [29], the Time was determined as 5.5 nanoseconds.
